# Measured values published in ChEMBL document CHEMBL3885881, “DrugMatrix”.
# Organism: Rattus norvegicus
# Assay type: toxicity, organism-based, Sprague-Dawley
# Conditions: in vivo, sc, 24 h, route mini-PUMP - SUBCUTANEOUS, time 1 day, vehicle 100 % SALINE; for ABSOLUTE EOSINOPHIL / ABSOLUTE LYMPHOCYTE / ABSOLUTE MONOCYTE / ABSOLUTE SEGMENTED NEUTROPHIL / BASOPHIL / EOSINOPHIL / ERYTHROCYTE COUNT / HEMATOCRIT / HEMOGLOBIN / LEUKOCYTE COUNT / LYMPHOCYTE / MEAN CORPUSCULAR HEMOGLOBIN / MEAN CORPUSCULAR HEMOGLOBIN CONCENTRATION / MEAN CORPUSCULAR VOLUME / MONOCYTE / NEUTROPHIL / NUCLEATED RED BLOOD CELLS / PLATELET COUNT: tissue Blood; for ALANINE AMINOTRANSFERASE / ALBUMIN / ALKALINE PHOSPHATASE / ASPARTATE AMINOTRANSFERASE / BLOOD UREA NITROGEN / CARBON DIOXIDE / CHLORIDE / CHOLESTEROL / CREATININE / GLUCOSE / LACTATE DEHYDROGENASE / LIPASE / PHOSPHORUS / POTASSIUM / SODIUM / TOTAL BILIRUBIN / TOTAL PROTEIN / URIC ACID: tissue Plasma
# [1] = 0 mg/kg, vehicle control, dose level Control
# [2] = […], dose 0.44 mg/Kg, dose level High
# Description: DrugMatrix - Regimen: Single
smiles,measurement,setting,value
CNC[C@H](O)c1cccc(O)c1 [PHENYLEPHRINE],ABSOLUTE EOSINOPHIL,[1],26.17 CELLS/uL
same,ABSOLUTE LYMPHOCYTE,[1],10985.83 CELLS/uL
same,ABSOLUTE MONOCYTE,[1],234.5 CELLS/uL
same,ABSOLUTE SEGMENTED NEUTROPHIL,[1],1753.5 CELLS/uL
same,BASOPHIL,[1],0%
same,EOSINOPHIL,[1],0.17%
same,ERYTHROCYTE COUNT,[1],5.64 x10E6/uL
same,HEMATOCRIT,[1],34.52%
same,HEMOGLOBIN,[1],12.68 G/DL
same,LEUKOCYTE COUNT,[1],13 x10E3/uL
same,LYMPHOCYTE,[1],84.5%
same,MEAN CORPUSCULAR HEMOGLOBIN,[1],22.5 pg
same,MEAN CORPUSCULAR HEMOGLOBIN CONCENTRATION,[1],36.78 G/DL
same,MEAN CORPUSCULAR VOLUME,[1],61.18 fL
same,MONOCYTE,[1],1.83%
same,NEUTROPHIL,[1],13.5%
same,NUCLEATED RED BLOOD CELLS,[1],0.17 /100WBC
same,PLATELET COUNT,[1],679.17 x10E3/uL
same,ALANINE AMINOTRANSFERASE,[1],42.67 u/L
same,ALBUMIN,[1],3.77 G/DL
same,ALKALINE PHOSPHATASE,[1],291.17 u/L
same,ASPARTATE AMINOTRANSFERASE,[1],74.5 u/L
same,BLOOD UREA NITROGEN,[1],15.33 mg/dL
same,CARBON DIOXIDE,[1],30 mmol/L
same,CHLORIDE,[1],100.83 MEQ/L
same,CHOLESTEROL,[1],65.33 mg/dL
same,CREATININE,[1],0.15 mg/dL
same,GLUCOSE,[1],179.83 mg/dL
same,LACTATE DEHYDROGENASE,[1],162.67 u/L
same,LIPASE,[1],8.5 u/L
same,PHOSPHORUS,[1],12.2 mg/dL
same,POTASSIUM,[1],5.73 MEQ/L
same,SODIUM,[1],144.7 MEQ/L
same,TOTAL BILIRUBIN,[1],0.15 mg/dL
same,TOTAL PROTEIN,[1],5.87 G/DL
same,URIC ACID,[1],1.93 mg/dL
same,ABSOLUTE EOSINOPHIL,[2],0 CELLS/uL
same,ABSOLUTE LYMPHOCYTE,[2],12992 CELLS/uL
same,ABSOLUTE MONOCYTE,[2],416.33 CELLS/uL
same,ABSOLUTE SEGMENTED NEUTROPHIL,[2],3025 CELLS/uL
same,BASOPHIL,[2],0%
same,EOSINOPHIL,[2],0%
same,ERYTHROCYTE COUNT,[2],6.07 x10E6/uL
same,HEMATOCRIT,[2],36.37%
same,HEMOGLOBIN,[2],13.2 G/DL
same,LEUKOCYTE COUNT,[2],16.43 x10E3/uL
same,LYMPHOCYTE,[2],79%
same,MEAN CORPUSCULAR HEMOGLOBIN,[2],21.77 pg
same,MEAN CORPUSCULAR HEMOGLOBIN CONCENTRATION,[2],36.27 G/DL
same,MEAN CORPUSCULAR VOLUME,[2],59.93 fL
same,MONOCYTE,[2],2.33%
same,NEUTROPHIL,[2],18.67%
same,NUCLEATED RED BLOOD CELLS,[2],0 /100WBC
same,PLATELET COUNT,[2],1118.67 x10E3/uL
same,ALANINE AMINOTRANSFERASE,[2],37.33 u/L
same,ALBUMIN,[2],3.83 G/DL
same,ALKALINE PHOSPHATASE,[2],259 u/L
same,ASPARTATE AMINOTRANSFERASE,[2],64.33 u/L
same,BLOOD UREA NITROGEN,[2],11.67 mg/dL
same,CARBON DIOXIDE,[2],30 mmol/L
same,CHLORIDE,[2],101.67 MEQ/L
same,CHOLESTEROL,[2],75.67 mg/dL
same,CREATININE,[2],0.16 mg/dL
same,GLUCOSE,[2],171.33 mg/dL
same,LACTATE DEHYDROGENASE,[2],133.67 u/L
same,LIPASE,[2],9 u/L
same,PHOSPHORUS,[2],14.13 mg/dL
same,POTASSIUM,[2],6.67 MEQ/L
same,SODIUM,[2],146.87 MEQ/L
same,TOTAL BILIRUBIN,[2],0.1 mg/dL
same,TOTAL PROTEIN,[2],5.97 G/DL
same,URIC ACID,[2],3.6 mg/dL
